Experimental data published in EPA's ToxValDB 9.5 (doi:10.2903/j.efsa.2013.3298).
Values after ≈ are worked out from the molar mass of the structure shown.

What was measured:
[1] = test system: Anas platyrhynchos
[2] = test system: Cyprinodon variegatus; conditions: acute; duration: 96 hours; mortality
[3] = test system: Daphnia magna; conditions: chronic/long-term; duration: 21 days; reproduction
[4] = test system: Bibionidae
[5] = test system: Rattus norvegicus
[6] = test system: Canidae; conditions: oral, M/F, Dog Other, hematological
[7] = test system: Apis mellifera; conditions: acute; duration: 48 hours; oral; unspecified; mortality
[8] = test system: Pimephales promelas; conditions: chronic/long-term; duration: 35 days; body weight
[9] = test system: Colinus virginianus; conditions: for LD50: acute, oral, mortality
[10] = test system: Tagia sp.
[11] = test system: Aphidius rhopalosiphi; assay: LR50; higher = less toxic; conditions: acute; duration: 14 days; mortality
[12] = test system: Typhlodromus pyri; assay: LR50; higher = less toxic; conditions: chronic/long-term; duration: 14 days; mortality

Structure (SMILES): Cc1cc(C(F)(C(F)(F)F)C(F)(F)F)ccc1NC(=O)c1cccc(I)c1C(=O)NC(C)(C)CS(C)(=O)=O [Flubendiamide]
- NOEL ([1]; reproductive, reproduction): 26 mg/kg-day
- LD50 ([1]; short-term, oral, feed, mortality): > 1020 mg/kg-day
- LC50 [2]: > 0.0298 µg/mL
- NOEC [3]: 0.4 µg/L
- LC50 ([4]; acute, duration: 48 hours, mortality): 1.88 µg/mL (≈ 2.75 µM)
- NOEC ([4]; chronic/long-term, duration: 28 days, development): 35 µg/L
- LD50 ([5]; acute, oral, M/F, mortality): > 2000 mg/kg
- NOAEL ([5]; chronic, M, hematological): 1.7 mg/kg-day
- NOAEL ([5]; developmental, development): 10 mg/kg-day
- NOAEL ([5]; reproduction developmental, F, reproduction): 3.68 mg/kg-day
- NOAEL ([6]; chronic, duration: 1 years): 2.21 mg/kg-day
- NOAEL ([6]; subchronic, duration: 90 days): 2.6 mg/kg-day
- LD50 [7]: > 200 µg/piece
- NOEC [8]: 60.2 µg/L
- LD50 ([9]; diet): > 1080 mg/kg-day
- LD50 [9]: > 2000 mg/kg
- NOEL ([9]; reproduction developmental, reproduction): 10.2 mg/kg-day
- LC50 ([10]; acute, duration: 14 days, mortality): > 1000 mg/kg
- NOEC ([10]; chronic/long-term, duration: 56 days, reproduction): 1000 mg/kg
- LR50 [11]: > 675 g/ha
- LR50 [12]: > 675 g/ha
